Measured values as given in US20170022171A1, “2,5-DISUBSTITUTED CYCLOPENTANECARBOXYLIC ACIDS AND THEIR USE” (Bayer Pharma Aktiengesellschaft, priority 2014, published 2017).

Assays:
Format in all cases: biochemical
mouse MMP-3 = molecular target: T1, mouse MMP-3 (Mus musculus, UniProt P28862); assay: In vitro mouse MMP-3 inhibition test
T1 construct: purchased R&D Systems 548-MP
From the text: (§1) The MMP-mediated amidolytic cleavage of a suitable peptide substrate leads to an increase in fluorescent light here too. The signal intensity of the fluorescent light is directly proportional to the enzyme activity. The active concentration of a test compound at which half the enzyme is inhibited (50% signal intensity of the fluorescent light) is reported as the IC50 value.
(§2) Recombinant mouse MMP-3 (from R&D Systems, 548-MP) is chemically activated in accordance with the manufacturer's instructions using APMA. 1 μl of the test compound to be analysed (as a solution in DMSO, suitable concentrations, for example, 1 nM to 30 μM) is pipetted into 24 μl of activated enzyme (final concentration, for example, 0.5 nM) in reaction buffer (50 mM Tris/HCl pH 7.5, 10 mM CaCl2, 150 mM NaCl, 0.05% Brij®-35) in a white 384-hole microtiter plate (MTP). The enzymatic reaction is started by adding the intramolecularly quenched Mca-Arg-Pro-Lys-Pro-Val-Glu-Nval-Trp-Arg-Lys(Dnp)-NH2 substrate (final concentration, for example, 5 μM; R&D Systems, ES-002), so as to result in a total test volume of 50 μl. The course of the MMP-3 reaction is measured by measuring the fluorescence intensity (excitation 320 nm, emission 410 nm) over a suitable period of time (for example over 120 min at a temperature of 32° C.).

mouse MMP-12 = molecular target: T2, mouse MMP-12 (Mus musculus, UniProt P34960); assay: In vitro mouse MMP-12 inhibition test (standard or high-sensitivity)
T2 construct: purchased R&D Systems 3467-MP
T2 sequence (P34960 110-473): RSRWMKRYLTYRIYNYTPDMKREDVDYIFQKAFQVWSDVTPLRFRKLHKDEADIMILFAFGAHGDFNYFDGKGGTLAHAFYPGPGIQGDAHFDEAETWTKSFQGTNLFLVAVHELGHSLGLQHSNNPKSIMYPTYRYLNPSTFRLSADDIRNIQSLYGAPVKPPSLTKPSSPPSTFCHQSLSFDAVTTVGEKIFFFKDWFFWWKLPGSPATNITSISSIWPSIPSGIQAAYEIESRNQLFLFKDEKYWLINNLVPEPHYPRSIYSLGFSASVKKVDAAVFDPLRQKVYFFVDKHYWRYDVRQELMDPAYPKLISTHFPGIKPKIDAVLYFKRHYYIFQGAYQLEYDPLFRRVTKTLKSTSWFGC
From the text: as §1
Recombinant mouse MMP-12 (from R&D Systems, 3467-MP) is autocatalytically activated in accordance with the manufacturer's instructions. 1 μl of the test compound to be analysed (as a solution in DMSO, suitable concentrations, for example, 1 nM to 30 μM) is pipetted into 24 μl of activated enzyme (final concentration, for example, 1 nM) in reaction buffer (50 mM Tris/HCl pH 7.5, 10 mM CaCl2, 150 mM NaCl, 0.05% Brij®-35) in a white 384-hole microtiter plate (MTP). The enzymatic reaction is started by adding the intramolecularly quenched Mca-Lys-Pro-Leu-Gly-Leu-Dpa(Dnp)-Ala-Arg-NH2 substrate (final concentration, for example, 5 μM; R&D Systems, ES-010), so as to result in a total test volume of 50 The course of the MMP-12 reaction is measured by measuring the fluorescence intensity (excitation 320 nm, emission 410 nm) over a suitable period of time (for example over 120 min at a temperature of 32° C.).
In this case, an enzyme concentration ten times lower is used (final concentration, for example, 0.1 nM) in order to achieve an elevated test sensitivity. The incubation period chosen for the test is correspondingly longer (for example 16 hours).

mouse MMP-9 = molecular target: T3, mouse MMP-9 (Mus musculus, UniProt P41245); assay: In vitro mouse MMP-9 inhibition test
T3 construct: purchased R&D Systems 909-MP
T3 sequence (P41245 108-730): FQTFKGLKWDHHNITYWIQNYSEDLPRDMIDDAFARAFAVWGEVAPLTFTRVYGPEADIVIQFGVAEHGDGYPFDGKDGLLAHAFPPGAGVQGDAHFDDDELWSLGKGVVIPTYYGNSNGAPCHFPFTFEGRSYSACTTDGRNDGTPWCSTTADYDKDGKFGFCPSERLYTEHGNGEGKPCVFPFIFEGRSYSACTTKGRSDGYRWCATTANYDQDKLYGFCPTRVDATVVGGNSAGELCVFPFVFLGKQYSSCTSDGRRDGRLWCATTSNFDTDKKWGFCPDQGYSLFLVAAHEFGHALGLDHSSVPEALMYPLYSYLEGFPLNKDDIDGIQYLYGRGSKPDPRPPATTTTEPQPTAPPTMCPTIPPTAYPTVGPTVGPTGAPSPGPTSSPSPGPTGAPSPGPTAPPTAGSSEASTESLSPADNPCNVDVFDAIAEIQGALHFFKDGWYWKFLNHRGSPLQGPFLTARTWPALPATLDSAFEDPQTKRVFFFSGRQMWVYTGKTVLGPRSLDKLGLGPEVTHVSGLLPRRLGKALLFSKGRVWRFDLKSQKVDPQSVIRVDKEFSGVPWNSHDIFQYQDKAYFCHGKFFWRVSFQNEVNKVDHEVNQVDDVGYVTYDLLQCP
From the text: as §1
as §2, with “MMP-9” for “MMP-3”, “909-MP)” for “548-MP)”, “0.1” for “0.5”, “Mca-Pro-Leu-Gly-Leu-Dpa(Dnp)-Ala-Arg-NH2” for “Mca-Arg-Pro-Lys-Pro-Val-Glu-Nval-Trp-Arg-Lys(Dnp)-NH2”, “ES-001),” for “ES-002),”, “50” for “50 μl.”

mouse MMP-8 = molecular target: T4, mouse MMP-8 (Mus musculus, UniProt O70138); assay: In vitro mouse MMP-8 inhibition test
T4 construct: purchased R&D Systems 2904-MP
T4 sequence (O70138 101-465): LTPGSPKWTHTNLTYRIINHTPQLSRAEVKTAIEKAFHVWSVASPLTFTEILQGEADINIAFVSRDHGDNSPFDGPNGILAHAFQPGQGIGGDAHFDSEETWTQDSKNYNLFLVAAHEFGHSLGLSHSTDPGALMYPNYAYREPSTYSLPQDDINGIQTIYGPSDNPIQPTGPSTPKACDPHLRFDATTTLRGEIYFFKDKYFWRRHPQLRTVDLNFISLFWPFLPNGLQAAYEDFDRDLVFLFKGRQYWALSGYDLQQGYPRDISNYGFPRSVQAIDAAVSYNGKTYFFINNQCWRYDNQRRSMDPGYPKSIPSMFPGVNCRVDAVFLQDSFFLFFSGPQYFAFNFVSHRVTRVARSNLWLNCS
From the text: as §1
as §2, with “MMP-8” for “MMP-3”, “2904-MP)” for “548-MP)”, “2” for “0.5”, “Mca-Lys-Pro-Leu-Gly-Leu-Dpa(Dnp)-Ala-Arg-NH2” for “Mca-Arg-Pro-Lys-Pro-Val-Glu-Nval-Trp-Arg-Lys(Dnp)-NH2”, “ES-010),” for “ES-002),”

mouse MMP-7 = molecular target: T5, mouse MMP-7 (Mus musculus, UniProt Q10738); assay: In vitro mouse MMP-7 inhibition test
T5 construct: purchased R&D Systems 2967-MP
T5 sequence (Q10738 95-264): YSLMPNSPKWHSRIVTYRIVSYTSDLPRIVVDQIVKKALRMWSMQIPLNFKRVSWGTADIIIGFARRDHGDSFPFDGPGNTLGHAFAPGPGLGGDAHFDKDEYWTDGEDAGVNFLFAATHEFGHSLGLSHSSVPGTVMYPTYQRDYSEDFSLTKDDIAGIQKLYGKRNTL
From the text: as §1
as §2, with “MMP-7” for “MMP-3”, “2967-MP)” for “548-MP)”, “Mca-Lys-Pro-Leu-Gly-Leu-Dpa(Dnp)-Ala-Arg-NH2” for “Mca-Arg-Pro-Lys-Pro-Val-Glu-Nval-Trp-Arg-Lys(Dnp)-NH2”, “ES-010),” for “ES-002),”

T1 sequence (P28862 100-477): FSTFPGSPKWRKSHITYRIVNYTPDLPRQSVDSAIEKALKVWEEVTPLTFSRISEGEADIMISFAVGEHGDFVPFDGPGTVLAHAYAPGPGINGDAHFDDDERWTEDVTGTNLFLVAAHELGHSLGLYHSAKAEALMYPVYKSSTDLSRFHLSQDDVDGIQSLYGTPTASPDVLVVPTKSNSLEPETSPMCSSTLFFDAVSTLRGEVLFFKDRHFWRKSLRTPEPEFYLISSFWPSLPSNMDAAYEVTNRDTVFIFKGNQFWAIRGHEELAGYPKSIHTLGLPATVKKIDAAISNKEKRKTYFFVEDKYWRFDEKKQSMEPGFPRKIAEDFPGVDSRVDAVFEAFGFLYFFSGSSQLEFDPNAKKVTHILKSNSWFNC

Molecule	IC50 (mouse MMP-3) [nM]	IC50 (mouse MMP-12) [nM]	IC50 (mouse MMP-9) [nM]	IC50 (mouse MMP-8) [nM]	IC50 (mouse MMP-7) [nM]
O=C(O)[C@@H]1[C@@H](Cn2nnc3ccc(C(F)(F)F)cc3c2=O)CC[C@H]1C(=O)c1ccc(SCc2ccc(Cl)c(Cl)c2)cc1 (single isomer, unassigned) [Example 80, (+)-(1RS,2RS,5SR)-2-{4-[(3,4-Dichlorobenzyl)sulphanyl]benzoyl}-5-{[4-oxo-6-(trifluoromethyl)-1,2,3-benzotriazin-3(4H)-yl]methyl}cyclopentanecarboxylic acid]	2500	4.3	> 40000	130	130
Cc1ccc2nnn(C[C@H]3CC[C@@H](C(=O)c4ccc(OCc5cccc(C(F)(F)F)c5)cc4)[C@@H]3C(=O)O)c(=O)c2c1 (single isomer, unassigned) [Example 101, (+)-(1RS,2SR,5RS)-2-[(6-Methyl-4-oxo-1,2,3-benzotriazin-3(4H)-yl)methyl]-5-(4-{[3-(trifluoromethyl)benzyl]oxy}benzoyl)cyclopentanecarboxylic acid]	1300	1.1	400	120	76
Cc1ccc2nnn(C[C@H]3CC[C@@H](C(=O)c4ccc(OCc5cccc(Cl)c5)cc4)[C@@H]3C(=O)O)c(=O)c2c1 (single isomer, unassigned) [Example 104, (+)-(1RS,2RS,5SR)-2-{4-[(3-Chlorobenzyl)oxy]benzoyl}-5-[(6-methyl-4-oxo-1,2,3-benzotriazin-3(4H)-yl)methyl]cyclopentanecarboxylic acid]	490	1.1	330	130	20
COC(=O)Nc1cccc(COc2ccc(C(=O)[C@@H]3CC[C@H](Cn4nnc5ccc(C(F)(F)F)cc5c4=O)[C@H]3C(=O)O)cc2)c1 (stereo in doubt) [Example 31, (+)-(1RS,2RS,5SR)-2-[4-({3-[(Methoxycarbonyl)amino]benzyl}oxy)benzoyl]-5-{[4-oxo-6-(trifluoromethyl)-1,2,3-benzotriazin-3(4H)-yl]methyl}cyclopentanecarboxylic acid]	3900	6.4	4300	89	44
(+)-(1RS,2RS,5SR)-2-{4-[(3,4-Dichlorobenzyl)oxy]benzoyl}-5-{[4-oxo-6-(trifluoromethyl)-1,2,3-benzotriazin-3(4H)-yl]methyl}cyclopentanecarboxylic acid [Example 28]	8200	7.1	2500	120	140

The next lines start with the values.

IC50 (mouse MMP-3) [nM]	IC50 (mouse MMP-12) [nM]	IC50 (mouse MMP-9) [nM]	IC50 (mouse MMP-8) [nM]	IC50 (mouse MMP-7) [nM]	Molecule
200	0.42	37	16	18	Cc1ccc2nnn(C[C@H]3CC[C@@H](C(=O)c4ccc(OCc5ccccc5)cc4)[C@@H]3C(=O)O)c(=O)c2c1 (single isomer, unassigned) [Example 92, (+)-(1RS,2RS,5SR)-2-[4-(Benzyloxy)benzoyl]-5-[(6-methyl-4-oxo-1,2,3-benzotriazin-3(4H)-yl)methyl]cyclopentanecarboxylic acid]
730	1.2	460	280	29	Cc1cccc(COc2ccc(C(=O)[C@@H]3CC[C@H](Cn4nnc5ccc(C)cc5c4=O)[C@H]3C(=O)O)cc2)c1 (single isomer, unassigned) [Example 98, (+)-(1RS,2RS,5SR)-2-{4-[(3-Methylbenzyl)oxy]benzoyl}-5-[(6-methyl-4-oxo-1,2,3-benzotriazin-3(4H)-yl)methyl]cyclopentanecarboxylic acid]
2400	0.72	1100	420	220	Cc1ccc2nnn(C[C@H]3CC[C@@H](C(=O)c4ccc(OCc5cccc(OC(F)(F)F)c5)cc4)[C@@H]3C(=O)O)c(=O)c2c1 (single isomer, unassigned) [Example 110, (+)-(1RS,2SR,5RS)-2-[(6-Methyl-4-oxo-1,2,3-benzotriazin-3(4H)-yl)methyl]-5-(4-{[3-(trifluoromethoxy)benzyl]oxy}benzoyl)cyclopentanecarboxylic acid]
470	0.62	230	13	16	Cc1ccc2nnn(C[C@H]3CC[C@@H](C(=O)c4ccc(OCC5CCCCC5)cc4)[C@@H]3C(=O)O)c(=O)c2c1 (single isomer, unassigned) [Example 117, (+)-(1RS,2RS,5SR)-2-[4-(Cyclohexylmethoxy)benzoyl]-5-[(6-methyl-4-oxo-1,2,3-benzotriazin-3(4H)-yl)methyl]cyclopentanecarboxylic acid]
2700	4	880	120	100	CCCCCCOc1ccc(C(=O)[C@@H]2CC[C@H](Cn3nnc4ccc(C)cc4c3=O)[C@H]2C(=O)O)cc1 (single isomer, unassigned) [Example 121, (+)-(1RS,2RS,5SR)-2-[4-(Hexyloxy)benzoyl]-5-[(6-methyl-4-oxo-1,2,3-benzotriazin-3(4H)-yl)methyl]cyclopentanecarboxylic acid]
5900	5.7	> 40000	1100	82	(+)-(1RS,2SR,5RS)-2-{[4-Oxo-6-(trifluoromethyl)-1,2,3-benzotriazin-3(4H)-yl]methyl}-5-{4-[(2-phenylethy)sulphanyl]benzoyl}cyclopentanecarboxylic acid [Example 83]
